Where two headings read alike, the source gives them in different places. Marks after values point to notes of the source that are not given here.
How the values were obtained:
[1] = test system: sleep-wake organisation in the rat; assay: Effect of Ih channel inhibition on sleep-wake organisation in rats (ACSO, EEG/EMG/movement); type: in vivo
Description: Methods: Sleep-wake organization was evaluated in instrumented male rats held on a 12:12 light-dark cycle. Classification of sleep-wake states was measured using an automated system (ACSO, Automatic Classification of Sleep Organization)^[i,ii] that records and processes EEG (cortical), EMG (neck muscle) and movement signals. Subjects were assigned to placebo, Org 34167 or ivabradine treatment groups and signals were recorded on two successive days. The first recording session provided a baseline recording following treatment with placebo only. This baseline day was used to extract a sleep classification algorithm for each individual subject. On the second day recording was started immediately after administration of placebo, Org 34167 (i.p.) or ivabradine (s.c.). Treatments were administered 2.5-3.0 h after lights-on. Data analysis and statistics: EEG, EMG and movement signals were used to classify every 2 second epoch into 6 different sleep stages using the algorithm derived for each individual subject from the baseline day recording. Six sleep-wake states were discriminated—Active waking (AW), Passive waking (PW), Light sleep (LS), Deep sleep (DS), Intermediate sleep (IS) and Rapid Eye Movement sleep (REM). Subsets of the six sleep-wake states were also combined to give Waking (PW and AW), Sleep (IS, REM, LS and DS) and NREM (LS and DS). For each treatment group, the median percentage of time spent in each sleep or waking state were calculated in 3 hour time intervals after drug injection. Significance was calculated by means of the two-sided rank sum test (Mann-Whitney test; P<0.025).

hHCN1 = target: T1, hHCN1 (Homo sapiens, UniProt O60741); assay: Determination of Ih channel inhibition, time-dependent current in HEK.hHCN1.2H10 cells; type: cell-based; settings: holding potential −40 mV
T1 construct: expressed in transfected cells; host or cells: HEK cells, clone HEK.hHCN1.2H10
T1 sequence (O60741 1-890): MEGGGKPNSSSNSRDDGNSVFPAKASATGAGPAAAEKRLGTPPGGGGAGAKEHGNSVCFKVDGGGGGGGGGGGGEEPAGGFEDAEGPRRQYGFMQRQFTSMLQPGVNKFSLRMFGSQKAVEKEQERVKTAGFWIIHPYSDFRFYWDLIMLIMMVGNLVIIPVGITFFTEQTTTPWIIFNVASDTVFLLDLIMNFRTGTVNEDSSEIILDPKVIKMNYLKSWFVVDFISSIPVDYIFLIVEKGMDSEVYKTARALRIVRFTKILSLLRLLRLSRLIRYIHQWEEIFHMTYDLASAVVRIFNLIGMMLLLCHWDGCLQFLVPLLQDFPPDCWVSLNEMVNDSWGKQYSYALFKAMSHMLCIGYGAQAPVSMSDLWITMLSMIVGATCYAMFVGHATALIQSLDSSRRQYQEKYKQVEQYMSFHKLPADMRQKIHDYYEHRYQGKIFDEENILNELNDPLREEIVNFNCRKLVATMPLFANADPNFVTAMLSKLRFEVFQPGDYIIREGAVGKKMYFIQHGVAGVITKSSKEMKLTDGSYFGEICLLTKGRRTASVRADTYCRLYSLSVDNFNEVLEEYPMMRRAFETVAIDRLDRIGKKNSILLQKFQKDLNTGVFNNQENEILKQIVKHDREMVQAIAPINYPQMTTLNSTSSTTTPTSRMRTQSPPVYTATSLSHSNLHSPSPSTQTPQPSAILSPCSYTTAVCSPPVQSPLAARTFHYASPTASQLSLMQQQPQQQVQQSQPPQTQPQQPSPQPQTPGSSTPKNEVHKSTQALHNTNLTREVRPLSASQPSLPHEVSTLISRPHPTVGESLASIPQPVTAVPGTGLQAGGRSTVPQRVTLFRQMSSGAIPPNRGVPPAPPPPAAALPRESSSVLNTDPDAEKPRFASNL
Description: Methods: HEK.hHCN1.2H10 cells growing in culture were dissociated using CDS to lift the cells. They were suspended in high K external solution and used in the assay at a density of 2×10^6 cells.ml^−1. Two separate runs were performed with voltage steps to −80 mV and […] for 1 s; the holding potential in both cases was −40 mV. The amplitude of the time-dependent current (assumed to be all hHCN1) was measured as the difference between the current recorded immediately after the capacity transient on stepping to the test voltage and the current measured after it had reached a steady state amplitude (PeakAmp metric). The amount of inhibition was assessed by calculating the ratio of Post Compound PeakAmp/Pre Compound PeakAmp. Thus a ratio of 1 would indicate no inhibition and 0 would indicate 100% inhibition. Compounds were tested at concentrations between 0.152 μM and 333.3 μM, and a dose-response curve constructed. The IC50 value was obtained (the concentration causing half maximal inhibition) and the pIC50 calculated (the negative logarithm of the molar concentration causing half-maximal inhibition).

Ih channel = Ih channel inhibition, statement without method
[2] = 0.3 mg/kg i.p., 0-3 h, lights on
[3] = 0.3 mg/kg i.p., 3-6 h, lights on
[4] = 0.3 mg/kg i.p., 6-9 h, lights on
[5] = 0.3 mg/kg i.p., 9-12 h, lights off
[6] = 1 mg/kg i.p., 9-12 h, lights off
[7] = 5 mg/kg s.c., 9-12 h, lights off
[8] = 15 mg/kg s.c., 0-3 h, lights on
[9] = 15 mg/kg s.c., 3-6 h, lights on
[10] = 15 mg/kg s.c., 6-9 h, lights on
[11] = 15 mg/kg s.c., 9-12 h, lights off
[12] = 50 mg/kg s.c., 0-3 h, lights on
[13] = 50 mg/kg s.c., 3-6 h, lights on
[14] = 50 mg/kg s.c., 6-9 h, lights on
[15] = 50 mg/kg s.c., 9-12 h, lights off

C=CC[C@H](N)c1ccccc1-c1noc2ccccc12.Cl [Org 34167, (S)-2-(1,2-benzisoxazol-3-yl)-α-2-propenylbenzenemethanamine hydrochloride]
median percentage of time spent in NREM [1, 2]: 46.4* % | median percentage of time spent in Sleep [1, 2]: 54.1* % | median percentage of time spent in Waking [1, 2]: 45.9* % | median percentage of time spent in NREM [1, 3]: 63.5% | median percentage of time spent in Sleep [1, 3]: 80.4% | median percentage of time spent in Waking [1, 3]: 19.6% | median percentage of time spent in NREM [1, 4]: 63.8% | median percentage of time spent in Sleep [1, 4]: 77.9% | median percentage of time spent in Waking [1, 4]: 22.1% | median percentage of time spent in NREM [1, 5]: 40.9% | median percentage of time spent in Sleep [1, 5]: 47.3% | median percentage of time spent in Waking [1, 5]: 52.7% | median percentage of time spent in NREM ([1]; 1 mg/kg i.p., 0-3 h, lights on): 7.6* % | median percentage of time spent in Sleep ([1]; 1 mg/kg i.p., 0-3 h, lights on): 7.6* % | median percentage of time spent in Waking ([1]; 1 mg/kg i.p., 0-3 h, lights on): 92.4* % | median percentage of time spent in NREM ([1]; 1 mg/kg i.p., 3-6 h, lights on): 59.1* % | median percentage of time spent in Sleep ([1]; 1 mg/kg i.p., 3-6 h, lights on): 64.2* % | median percentage of time spent in Waking ([1]; 1 mg/kg i.p., 3-6 h, lights on): 35.8* % | median percentage of time spent in NREM ([1]; 1 mg/kg i.p., 6-9 h, lights on): 63.9* % | median percentage of time spent in Sleep ([1]; 1 mg/kg i.p., 6-9 h, lights on): 81.2% | median percentage of time spent in Waking ([1]; 1 mg/kg i.p., 6-9 h, lights on): 18.8% | median percentage of time spent in NREM [1, 6]: 42.1% | median percentage of time spent in Sleep [1, 6]: 51.8% | median percentage of time spent in Waking [1, 6]: 48.2% | effect on waking and sleep compared to placebo ([1]; Org 34167 i.p., first 3-6 hours of the session): dose dependently increased waking and decreased sleep | IC50 (hHCN1; voltage step to −80 mV for 1 s, read-out: IC50 μM −80 mV): 3.2 µM | IC50 (hHCN1; voltage step to −120 mV for 1 s, read-out: IC50 μM −120 mV): 8.6 µM

COc1cc2c(cc1OC)CC(=O)N(CCCN(C)C[C@H]1Cc3cc(OC)c(OC)cc31)CC2.Cl [ivabradine, (+)-3-[3-[N-[4,5-dimethoxybenzocyclobutan-1-(S)-ylmethyl]-N-methylamino]propyl]-7,8-dimethoxy-2,3,4,5-tetrahydro-1H-3-benzazepin-2-one hydrochloride]
median percentage of time spent in NREM ([1]; 5 mg/kg s.c., 0-3 h, lights on): 49.5% | median percentage of time spent in Sleep ([1]; 5 mg/kg s.c., 0-3 h, lights on): 58.2% | median percentage of time spent in Waking ([1]; 5 mg/kg s.c., 0-3 h, lights on): 41.8% | median percentage of time spent in NREM ([1]; 5 mg/kg s.c., 3-6 h, lights on): 68.9% | median percentage of time spent in Sleep ([1]; 5 mg/kg s.c., 3-6 h, lights on): 84.8% | median percentage of time spent in Waking ([1]; 5 mg/kg s.c., 3-6 h, lights on): 15.2% | median percentage of time spent in NREM ([1]; 5 mg/kg s.c., 6-9 h, lights on): 56.2% | median percentage of time spent in Sleep ([1]; 5 mg/kg s.c., 6-9 h, lights on): 72.9% | median percentage of time spent in Waking ([1]; 5 mg/kg s.c., 6-9 h, lights on): 27.1% | median percentage of time spent in NREM [1, 7]: 39.5% | median percentage of time spent in Sleep [1, 7]: 50.4% | median percentage of time spent in Waking [1, 7]: 49.6% | median percentage of time spent in NREM [1, 8]: 53.2% | median percentage of time spent in Sleep [1, 8]: 60.1* % | median percentage of time spent in Waking [1, 8]: 39.9* % | median percentage of time spent in NREM [1, 9]: 65.8% | median percentage of time spent in Sleep [1, 9]: 83.0% | median percentage of time spent in Waking [1, 9]: 17.0% | median percentage of time spent in NREM [1, 10]: 60.0% | median percentage of time spent in Sleep [1, 10]: 72.5% | median percentage of time spent in Waking [1, 10]: 27.5% | median percentage of time spent in NREM [1, 11]: 37.4% | median percentage of time spent in Sleep [1, 11]: 45.2% | median percentage of time spent in Waking [1, 11]: 54.8% | median percentage of time spent in NREM [1, 12]: 41.4% | median percentage of time spent in Sleep [1, 12]: 42.2* % | median percentage of time spent in Waking [1, 12]: 57.8* % | median percentage of time spent in NREM [1, 13]: 63.2% | median percentage of time spent in Sleep [1, 13]: 80.4% | median percentage of time spent in Waking [1, 13]: 19.6% | median percentage of time spent in NREM [1, 14]: 65.0% | median percentage of time spent in Sleep [1, 14]: 81.0% | median percentage of time spent in Waking [1, 14]: 19.0% | median percentage of time spent in NREM [1, 15]: 45.8* % | median percentage of time spent in Sleep [1, 15]: 57.9* % | median percentage of time spent in Waking [1, 15]: 42.1* % | effect on waking and sleep compared to placebo ([1]; ivabradine s.c., first 3 hours of the session): dose dependently increased waking and decreased sleep

NC(=O)C[S+]([O-])C(c1ccccc1)c1ccccc1 (centres unmarked) [modafanil]
Ih channel inhibitor or not (Ih channel): not to be an Ih channel inhibitor
